ChEMBL document CHEMBL5532709, “Discovery of Biofilm Inhibitors from the Microbiota of Marine Egg Masses” (J Nat Prod, 2024)
Active and inactive are the calls of the source. No cut-off for these calls is given here.

Tests used:
[1] = system: Staphylococcus aureus; experiment: Inhibition of biofilm formation of methicillin-resistant Staphylococcus aureus N315 at ~1 ug/ml incubated for 24 hrs by crystal violet staining based analysis relative to control; format: functional
[2] = system: Vibrio cholerae; experiment: Inhibition of biofilm formation of Vibrio cholerae incubated for 4.5 hrs by epifluorescence based assay; format: functional, organism-based
[3] = system: Staphylococcus aureus; experiment: Inhibition of biofilm formation of Staphylococcus aureus incubated for 16 to 20 hrs by crystal violet staining based analysis; format: functional, organism-based
[4] = system: Staphylococcus aureus; experiment: Antibacterial activity against Staphylococcus aureus assessed as bacterial growth inhibition at 0.005 to 10 mg/ml incubated for 16 to 20 hrs by crystal violet staining based analysis; format: functional, organism-based; details: dose 0.005-10 mg/ml, time 16-20 hrs
[5] = system: Staphylococcus aureus; experiment: Disruption of pre-formed biofilm of Staphylococcus aureus at 518 uM incubated for 16 to 20 hrs by crystal violet staining based analysis relative to control; format: functional; details: time 16-20 hrs
[6] = system: Isoptericola; experiment: Inhibition of biofilm formation of Isoptericola at 0.005 to 10 mg/ml incubated for 16 to 20 hrs by crystal violet staining based analysis; format: functional, organism-based
[7] = system: Staphylococcus aureus; experiment: Inhibition of biofilm formation of Staphylococcus aureus at […] incubated for 16 to 20 hrs in presence of >6.25 uM FeCl3 by crystal violet staining based analysis; format: functional, organism-based; details: dose lower 88.0 mg/ml, time 16-20 hrs

CCCCC1CCCCCCc2cc1c(/C=C1\N=C(c3ccc[nH]3)C=C1OC)[nH]2 (stereo not drawn) [STREPTORUBIN B]
inhibition at 1 µg/mL [1]: 70%

C=C1Oc2cc(OC)cc(C(=O)OC)c2NC1=O
IC50 [2]: 60.1 µM

O=C(NCCCC[C@@H]1CN=C(c2cccc(O)c2O)N1)c1cccc(O)c1O
IC50 [3]: 88.5 µM | inhibition ([3]; time 16-20 hrs): Dose-Dependent Effect | inhibition [4]: inactive | Activity [5]: 30% | IC50 [6]: 50.6 µM | inhibition [7]: inactive
